Data from US11192889B2, “Tetrahydronaphthyridinepentanamide integrin antagonists” (The Rockefeller University, priority 2016, dated 2021).
Where “and” joins values, the source holds several entries; their conditions need not be identical. Identical values can stand only once.

How the values were obtained:
HEK-293-αVβ3 cells [1] = molecular target: T1, HEK-293-αVβ3 cells (Homo sapiens, UniProt P05106+P06756); test: AP5 Binding Assay; assay type: cell-based; settings: for AP5 expression induced at the highest concentration / activation at 10 µM: @10 μM, relative to AP5 expression induced by cilengitide; for EC50: concentration inducing 50% of the AP5 expression induced by 1 μM cilengitide; for activation at 10 µM: read-out: AP5 expression induced at the highest concentration
Excerpt: (§1) HEK-293 Cells Expressing αVβ3. HEK-293 cells were transfected using lipofectamine 2000 (Invitrogen #11668030) with the cDNA for αV using the pEF1/V5-His A vector and the cDNA for β3 using the vector pcDNA3.1. Cells expressing αVβ3 were identified by their reaction with murine monoclonal antibodies (mAbs) LM609 and 7E3, and stable cell lines were established by repetitive sorting using LM609. […] HEK-293-αVβ3 cells for assays are counted in an automated cell counter (ADVIA 120) and adjusted to values appropriate for each assay.
AP5 Binding Assay. HEK-293-αVβ3 cells are harvested using 0.05% trypsin 0.5 mM EDTA, washed with HBMT once, and resuspended in HBMT containing 1 mM Mg2+ and 2 mM Ca2+. The cells are counted and adjusted to 0.5×10^6 cells per sample. The compound to be tested and fluorescently labeled mAb AP5 (either Alexa 488 or Alexa 674; 10 μg/mL) are added and incubated for 30 minutes at 37° C. The cells are then washed and analyzed by flow cytometry (BD FACSCalibur) at the appropriate wavelength for detecting the AP5 fluorophore. In each assay, cilengitide (1 μM) and 10 mM EDTA are included as positive controls and untreated cells are used as the negative control. The concentration of the test compound required to induce the expression of 50% of the AP5 expression induced by cilengitide is calculated and defined as the EC50. The EC50 for cilengitide was determined based on the expression induced by EDTA.

HEK-293-αVβ3 cells [2] = molecular target: T1, HEK-293-αVβ3 cells; test: αVβ3 Cell Adhesion to Fibrinogen Assay; assay type: cell-based; parameters: IC50; other: dose reducing by 50% the adhesion of HEK-293-αVβ3 cells to fibrinogen; untreated cells 100% adhesion, 10 mM EDTA 0%; settings: for IC50: dose reducing by 50% the adhesion of HEK-293-αVβ3 cells to fibrinogen, separate determinations listed
Excerpt: as §1
αVβ3 Cell Adhesion to Fibrinogen Assay. Polystyrene 96-well microtiter plates (Costar, 3590) are precoated with 3.5 μg/mL of purified fibrinogen (Enzyme Research Laboratories) in 0.15 M NaCl, 0.01 M Tris/HCL, pH 7.4 for 1 hour at 37° C. The wells are then washed and incubated with HEPES-Buffered Modified Tyrode's solution (HBMT; 0.128 M NaCl, 10 mM HEPES, 12 mM NaHCO3, 0.4 mM NaH2PO4, 2.7 mM KCl, 0.35% bovine serum albumin (Fisher), 0.1% glucose, pH 7.4) for 1 hour at room temperature or overnight at 4° C. Wells are washed with HBMT containing 1 mM Mg2+ and 2 mM Ca2+ and then 50 μL of HEK-293-αVβ3 cells that have been pretreated with the compound to be tested for 20 minutes at room temperature are added to each well at a concentration of 3,000 cells/μL. After 30-32 minutes the wells are washed with HBMT containing Ca2+ and Mg2+ three times and then the adherent cells are lysed and the acid phosphatase activity that is released is measured by: 1. adding phosphatase substrate (Sigma EC 224-246-5) at 2 mg/mL in 0.1 M Na citrate, pH 5.6, 0.1% triton X-100 for 1 hour at room temperature; 2. stopping the reaction by adding 50 μL of 2 M NaOH; and 3. analyzing the samples in a spectrophotometer at 405 nm. In each assay, 10 mM EDTA is used as a positive control and untreated cells are used as a negative control. The IC50 is the dose of test compound that reduces by 50% the adhesion of the HEK-293-αVβ3 cells, taking the results with untreated cells as 100% and the results in the presence of EDTA as 0%. In some instances more than one IC50 determination was made, in which case, results of separate determinations are reported. IC50's were not determined for all compounds in the table; for some of these test compounds the inhibition at specific doses are reported. In some instances, the test compound produced a greater reduction than 10 mM EDTA, and these are shown as negative numbers.

T1 sequence (P05106 whole entry): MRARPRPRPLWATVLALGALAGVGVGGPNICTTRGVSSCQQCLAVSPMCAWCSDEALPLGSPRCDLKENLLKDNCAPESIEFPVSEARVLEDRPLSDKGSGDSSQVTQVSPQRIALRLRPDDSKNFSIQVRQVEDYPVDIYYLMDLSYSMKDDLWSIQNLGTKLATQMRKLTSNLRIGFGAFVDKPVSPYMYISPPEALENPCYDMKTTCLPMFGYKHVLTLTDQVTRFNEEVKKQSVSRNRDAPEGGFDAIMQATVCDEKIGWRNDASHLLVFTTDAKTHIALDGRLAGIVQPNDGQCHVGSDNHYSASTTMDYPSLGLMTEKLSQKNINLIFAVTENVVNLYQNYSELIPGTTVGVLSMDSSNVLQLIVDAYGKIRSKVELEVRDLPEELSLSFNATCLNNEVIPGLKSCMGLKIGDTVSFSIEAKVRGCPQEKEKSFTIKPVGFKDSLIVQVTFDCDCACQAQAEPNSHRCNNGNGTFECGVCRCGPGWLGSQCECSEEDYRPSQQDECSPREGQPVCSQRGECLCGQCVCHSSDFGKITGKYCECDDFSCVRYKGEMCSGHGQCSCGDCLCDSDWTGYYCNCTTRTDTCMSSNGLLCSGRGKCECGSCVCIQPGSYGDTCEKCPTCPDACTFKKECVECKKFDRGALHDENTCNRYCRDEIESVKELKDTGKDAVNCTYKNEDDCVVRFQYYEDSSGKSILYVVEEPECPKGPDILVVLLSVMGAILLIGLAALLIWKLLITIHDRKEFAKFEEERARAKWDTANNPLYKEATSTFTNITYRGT
T1 sequence (P06756 whole entry): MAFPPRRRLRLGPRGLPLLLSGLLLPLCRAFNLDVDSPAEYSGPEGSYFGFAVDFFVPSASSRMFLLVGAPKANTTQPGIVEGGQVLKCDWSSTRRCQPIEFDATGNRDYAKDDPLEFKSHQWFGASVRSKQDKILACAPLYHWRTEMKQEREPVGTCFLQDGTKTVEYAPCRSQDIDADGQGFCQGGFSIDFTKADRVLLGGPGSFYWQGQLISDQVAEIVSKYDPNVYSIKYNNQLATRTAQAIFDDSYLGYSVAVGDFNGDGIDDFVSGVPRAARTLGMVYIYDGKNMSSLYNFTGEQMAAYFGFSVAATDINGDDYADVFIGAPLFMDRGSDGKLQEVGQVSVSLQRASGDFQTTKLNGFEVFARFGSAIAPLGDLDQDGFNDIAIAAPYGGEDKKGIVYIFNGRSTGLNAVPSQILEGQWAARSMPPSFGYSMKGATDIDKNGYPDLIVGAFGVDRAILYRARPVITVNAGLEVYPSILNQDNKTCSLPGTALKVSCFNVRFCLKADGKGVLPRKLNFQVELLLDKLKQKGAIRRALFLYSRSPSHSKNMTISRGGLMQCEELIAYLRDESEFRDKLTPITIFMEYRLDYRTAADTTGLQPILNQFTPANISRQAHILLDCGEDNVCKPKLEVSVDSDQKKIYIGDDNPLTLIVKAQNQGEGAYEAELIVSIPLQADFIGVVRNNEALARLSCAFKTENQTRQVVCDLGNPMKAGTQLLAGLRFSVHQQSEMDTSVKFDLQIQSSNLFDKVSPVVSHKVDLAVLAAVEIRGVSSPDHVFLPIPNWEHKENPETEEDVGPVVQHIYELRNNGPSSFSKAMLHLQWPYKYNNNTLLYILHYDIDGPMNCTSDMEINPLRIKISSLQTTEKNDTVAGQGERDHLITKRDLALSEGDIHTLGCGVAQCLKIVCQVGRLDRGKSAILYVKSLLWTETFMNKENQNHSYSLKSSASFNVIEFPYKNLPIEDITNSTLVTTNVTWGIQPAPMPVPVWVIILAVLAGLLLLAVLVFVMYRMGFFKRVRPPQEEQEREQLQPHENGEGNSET

| Structure (SMILES) | EC50 (HEK-293-αVβ3 cells [1]) [nM] | IC50 (HEK-293-αVβ3 cells [2]) | activation at 10 µM (HEK-293-αVβ3 cells [1]) [%] | also measured |
| --- | --- | --- | --- | --- |
| O=C(CCCCc1ccc2c(n1)NCCC2)NCCC(C(=O)O)c1cnc2ccccc2c1 (single isomer, unassigned) [Example 89, 2-(3-quinolyl)-4-[5-(5,6,7,8-tetrahydro-1,8-naphthyridin-2-yl)pentanoylamino]butanoic acid] | > 10000 | 106 nM | – | AP5 expression induced at the highest concentration (HEK-293-αVβ3 cells [1]): 27% |
| O=C(CCCCc1ccc2c(n1)NCCC2)NCCC(C(=O)O)c1cnc2ccccc2c1 (single isomer, unassigned) [Example 90, 2-(3-quinolyl)-4-[5-(5,6,7,8-tetrahydro-1,8-naphthyridin-2-yl)pentanoylamino]butanoic acid] | > 10000 | 228 nM | – | AP5 expression induced at the highest concentration (HEK-293-αVβ3 cells [1]): 11% |
| O=C(CCCCc1ccc2c(n1)NCCC2)NCCC(C(=O)O)n1cnc(-c2ccccc2)n1 (single isomer, unassigned) [Example 93, (S or R)-2-(3-phenyl-1,2,4-triazol-1-yl)-4-[5-(5,6,7,8-tetrahydro-1,8-naphthyridin-2-yl)pentanoylamino]-butanoic acid] | > 10000 | 288 nM | – | – |
| O=C(CCCCc1ccc2c(n1)NCCC2)NCCC(C(=O)O)n1cnc(-c2ccccc2)n1 (single isomer, unassigned) [Example 94, (S or R)-2-(3-phenyl-1,2,4-triazol-1-yl)-4-[5-(5,6,7,8-tetrahydro-1,8-naphthyridin-2-yl)pentanoylamino]butanoic acid] | – | 373 nM | – | – |
| O=C(O)CCCNC(=O)CCCCc1ccc2c(n1)NCCC2 [Example 1, 4-[5-(5,6,7,8-tetrahydro-1,8-naphthyridin-2-yl)pentanoylamino]butanoic acid] | > 100000 | 1350 nM | – | – |
| COC(=O)C(C)CCNC(=O)CCCCc1ccc2c(n1)NCCC2 (stereo not drawn) [Example 10, Methyl 2-methyl-4-[5-(5,6,7,8-tetrahydro-1,8-naphthyridin-2-yl)pentanoylamino]butanoate] | – | > 10000 nM | – | – |
| CC(CCNC(=O)CCCCc1ccc2c(n1)NCCC2)C(=O)O (stereo not drawn) [Example 12, 2-Methyl-4-[5-(5,6,7,8-tetrahydro-1,8-naphthyridin-2-yl)pentanoylamino]butanoic acid] | – | > 10000 nM | – | – |
| Cc1ccc(S(=O)(=O)NC(CCNC(=O)CCCCc2ccc3c(n2)NCCC3)C(=O)O)cc1 (stereo not drawn) [Example 14, 2-(p-Tolylsulfonylamino)-4-[5-(5,6,7,8-tetrahydro-1,8-naphthyridin-2-yl)pentanoylamino]butanoic acid] | > 10000 | 6300 nM | 7 | – |
| O=C(CCCCc1ccc2c(n1)NCCC2)NCCC(NC(=O)c1ccccn1)C(=O)O (stereo not drawn) [Example 25] | > 10000 | < 100 nM | 16 | – |
| O=C(CCCCc1ccc2c(n1)NCCC2)NCCC(NC(=O)CO)C(=O)O (stereo not drawn) [Example 34] | > 10000 | < 100 nM | 32 | – |
| COC(=O)NC(CCNC(=O)CCCCc1ccc2c(n1)NCCC2)C(=O)O (stereo not drawn) [Example 36] | > 10000 | < 100 nM | 12 | – |
| CC(C)COC(=O)NC(CCNC(=O)CCCCc1ccc2c(n1)NCCC2)C(=O)O (stereo not drawn) [Example 38, 2-(Isobutoxycarbonylamino)-4-[5-(5,6,7,8-tetrahydro-1,8-naphthyridin-2-yl)pentanoylamino]butanoic acid] | > 10000 | 343 nM and 416 nM | 20 | – |
| O=C(CCCCc1ccc2c(n1)NCCC2)NCCC(NS(=O)(=O)c1ccc2ccccc2c1)C(=O)O (stereo not drawn) [Example 45] | – | – | – | inhibition at specific dose 0.1 (HEK-293-αVβ3 cells [2]; dose 0.1 (table in μM), untreated cells 100% adhesion, 10 mM EDTA 0%): 40% |
| O=C(CCCCc1ccc2c(n1)NCCC2)NCCC(NS(=O)(=O)c1ccc(Oc2ccccc2)cc1)C(=O)O (stereo not drawn) [Example 48] | – | > 10000 nM | – | – |
| O=C(CCCCc1ccc2c(n1)NCCC2)NCCC(NC(=O)Nc1ccc(Oc2ccccc2)cc1)C(=O)O (stereo not drawn) [Example 59] | – | > 10000 nM | – | – |
| CC(C)[C@H]1C(=O)N[C@@H](CCCN=C(N)N)C(=O)NCC(=O)N[C@@H](CC(=O)O)C(=O)N[C@H](Cc2ccccc2)C(=O)N1C [cilengitide, reference compound] | – | – | – | AP5 expression (HEK-293-αVβ3 cells [1]; 1 μM cilengitide, average±SD of 17 experiments): 42.5±8.0 arbitrary fluorescence units |

Now from value to compound, other results behind:

| EC50 (HEK-293-αVβ3 cells [1]) [nM] | IC50 (HEK-293-αVβ3 cells [2]) | activation at 10 µM (HEK-293-αVβ3 cells [1]) [%] | Structure (SMILES) | also measured |
| --- | --- | --- | --- | --- |
| > 10000 | 286 nM and 1680 nM | 19 | COC(=O)[C@H](CCNC(=O)CCCCc1ccc2c(n1)NCCC2)NC(=O)OCc1ccccc1 [Example 2, Methyl (2S)-2-(benzyloxycarbonylamino)-4-[5-(5,6,7,8-tetrahydro-1,8-naphthyridin-2-yl)pentanoylamino]butanoate] | – |
| > 10000 | 146 nM and 484 nM and 699 nM and 362 nM and 324 nM and 344 nM | 16 | O=C(CCCCc1ccc2c(n1)NCCC2)NCC[C@H](NC(=O)OCc1ccccc1)C(=O)O [Example 3, (2S)-2-(Benzyloxycarbonylamino)-4-[5-(5,6,7,8-tetrahydro-1,8-naphthyridin-2-yl)pentanoylamino]butanoic acid] | – |
| > 10000 | 225 nM and 773 nM and 952 nM and 537 nM and 612 nM and 683 nM | 5 | O=C(CCCCc1ccc2c(n1)NCCC2)NCC[C@@H](NC(=O)OCc1ccccc1)C(=O)O [Example 4, (2R)-2-(Benzyloxycarbonylamino)-4-[5-(5,6,7,8-tetrahydro-1,8-naphthyridin-2-yl)pentanoylamino]butanoic acid] | – |
| > 10000 | 2450 nM | 23 | COC(=O)C(CCNC(=O)CCCCc1ccc2c(n1)NCCC2)NC(=O)OCc1ccccc1 (stereo not drawn) [Example 5, Methyl 2-(benzyloxycarbonylamino)-4-[5-(5,6,7,8-tetrahydro-1,8-naphthyridin-2-yl)pentanoylamino]butanoate] | – |
| – | > 10000 nM | – | COC(=O)[C@@H](CCNC(=O)CCCCc1ccc2c(n1)NCCC2)NC(=O)OCc1ccccc1 [Example 6, Methyl (2R)-2-(benzyloxycarbonylamino)-4-[5-(5,6,7,8-tetrahydro-1,8-naphthyridin-2-yl)pentanoylamino]butanoate] | – |
| > 10000 | 407 nM and 570 nM and 337 nM and 428 nM | 15 | O=C(CCCCc1ccc2c(n1)NCCC2)NCCC(NC(=O)OCc1ccccc1)C(=O)O (stereo not drawn) [Example 7, 2-(Benzyloxycarbonylamino)-4-[5-(5,6,7,8-tetrahydro-1,8-naphthyridin-2-yl)pentanoylamino]butanoic acid] | – |
| – | > 10000 nM | – | COC(=O)C(CCNC(=O)CCCCc1ccc2c(n1)NCCC2)c1ccccc1 (stereo not drawn) [Example 8, Methyl 2-phenyl-4-[5-(5,6,7,8-tetrahydro-1,8-naphthyridin-2-yl)pentanoylamino]butanoate] | – |
| > 10000 | 3720 nM and 1770 nM | 11 | O=C(CCCCc1ccc2c(n1)NCCC2)NCCC(C(=O)O)c1ccccc1 (stereo not drawn) [Example 9, 2-Phenyl-4-[5-(5,6,7,8-tetrahydro-1,8-naphthyridin-2-yl)pentanoylamino]butanoic acid] | – |
| – | > 10000 nM | – | COC(=O)C(CCNC(=O)CCCCc1ccc2c(n1)NCCC2)Cc1ccccc1 (stereo not drawn) [Example 11, Methyl 2-benzyl-4-[5-(5,6,7,8-tetrahydro-1,8-naphthyridin-2-yl)pentanoylamino]butanoate] | – |
| – | > 10000 nM | – | O=C(CCCCc1ccc2c(n1)NCCC2)NCCC(Cc1ccccc1)C(=O)O (stereo not drawn) [Example 13, 2-Benzyl-4-[5-(5,6,7,8-tetrahydro-1,8-naphthyridin-2-yl)pentanoylamino]butanoic acid] | – |
